Reference: patent US20250034165A1, “COMPOUND CONTAINING CYCLOALKYL OR HALOALKYL” (CHIA TAI TIANQING PHARMACEUTICAL GROUP CO., LTD., priority 2021, published 2025)

What was measured:
[1] = In vitro stability in liver microsomes; assay type: in vitro ADME; conditions: Human liver microsome
Description: 300 μL of the final incubation system contains 30 μL of liver microsomes (protein concentration: 0.15 mg/mL), 30 μL of NADPH+MgCl2, 3 μL of the test compound (in acetonitrile), and 237 μL of PBS buffer (pH 7.4). The proportion of the organic solvent (acetonitrile) was 1%. Samples were prepared in duplicate of 0.3 mL for each species (e.g., human or mouse liver microsomes). Tubes each containing 270 μL of a mixed solution of substrate and enzyme […] were pre-incubated at 37° C. for 5 min. 30 μL of NADPH+MgCl2 was added and the mixture was mixed. 50 μL of the mixture was taken at 0 min, 15 min, 30 min, and 60 min, and 300 μL of glacial acetonitrile containing an internal standard was added to terminate the reaction.
50 μL of the incubated sample was added with 300 μL of glacial acetonitrile containing an internal standard (20 ng/mL diazepam) for precipitation. The mixture was vortexed for 5 min, and centrifuged (12,000 rpm, 4° C.) for 10 min. 75 μL of supernatant was taken and diluted with 75 μL of ultrapure water. After being homogeneously mixed, 0.5 μL of the resulting sample was injected for analysis.

[2] = biological target: EGFR (d746-750 (d19)/T790M) (Homo sapiens (Human), UniProt P00533, DEL746-750/T790M); experiment: Inhibitory activity for EGFR (d746-750 (d19)/T790M) kinase; assay type: biochemical; conditions: ATP 5 μM
Chain of EGFR (d746-750 (d19)/T790M) (P00533 other isoform, or with tags, fused parts or gaps T790M/del 1-668/del 746-750 limits assumed): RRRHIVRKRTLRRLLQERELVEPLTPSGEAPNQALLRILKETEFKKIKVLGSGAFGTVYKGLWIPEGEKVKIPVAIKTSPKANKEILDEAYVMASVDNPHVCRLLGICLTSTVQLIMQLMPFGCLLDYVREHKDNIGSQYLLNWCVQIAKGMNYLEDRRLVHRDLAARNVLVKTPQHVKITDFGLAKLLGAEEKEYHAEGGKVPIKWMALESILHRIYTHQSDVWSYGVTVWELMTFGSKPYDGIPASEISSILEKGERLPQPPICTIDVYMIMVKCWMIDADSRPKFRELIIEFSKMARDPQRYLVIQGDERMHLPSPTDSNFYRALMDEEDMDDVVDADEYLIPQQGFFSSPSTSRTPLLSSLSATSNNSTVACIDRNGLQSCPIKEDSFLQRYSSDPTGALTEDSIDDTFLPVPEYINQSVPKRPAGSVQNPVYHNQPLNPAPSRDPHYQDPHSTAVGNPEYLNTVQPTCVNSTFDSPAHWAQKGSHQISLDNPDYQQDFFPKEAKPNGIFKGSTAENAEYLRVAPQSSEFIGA
Procedure, shortened: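 Recombinant EGFR d746-750/T790M (0.003 ng/μL final) preincubated 30 min with compound (10 to 0.0024 nM, 4-fold steps), then 5 μM ATP and 0.1 μM ULight-poly GT added for 2 h at room temperature. EDTA stop, Eu-anti-phosphotyrosine TR-FRET read (665 nm); IC50 by four-parameter fit.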

[3] = biological target: EGFR (d746-750/T790M/C797S) (Homo sapiens (Human), UniProt P00533, C797S/DEL746-750/T790M); experiment: Inhibitory activity for EGFR (d746-750/T790M/C797S) kinase; assay type: biochemical; conditions: ATP 5 μM; read-out: EGFR(d19/T790M/C797S) (IC50)
Chain of EGFR (d746-750/T790M/C797S) (P00533 other isoform, or with tags, fused parts or gaps T790M/C797S/del 1-694/del 746-750 limits assumed): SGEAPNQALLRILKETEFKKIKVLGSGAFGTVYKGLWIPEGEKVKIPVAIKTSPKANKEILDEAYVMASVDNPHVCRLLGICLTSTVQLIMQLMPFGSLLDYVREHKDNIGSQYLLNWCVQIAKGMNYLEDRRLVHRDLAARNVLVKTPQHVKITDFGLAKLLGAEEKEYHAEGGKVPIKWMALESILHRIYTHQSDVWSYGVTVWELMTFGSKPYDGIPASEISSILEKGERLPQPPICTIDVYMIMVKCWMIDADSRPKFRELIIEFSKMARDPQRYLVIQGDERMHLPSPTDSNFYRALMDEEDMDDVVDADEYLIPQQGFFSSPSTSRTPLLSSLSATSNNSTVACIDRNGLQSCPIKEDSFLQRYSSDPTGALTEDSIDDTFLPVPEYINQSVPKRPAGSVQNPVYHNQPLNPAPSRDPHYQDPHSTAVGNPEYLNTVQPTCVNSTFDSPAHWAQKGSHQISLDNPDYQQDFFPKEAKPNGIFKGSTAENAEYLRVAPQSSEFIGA
Procedure, shortened: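 EGFR d746-750/T790M/C797S (0.03 ng/μL final) preincubated 30 min with compound (10 nM–0.0024 nM, 4-fold, 7 points). Reaction with 5 μM ATP and 0.1 μM ULight-poly GT, 2 h at room temperature; EDTA stop, Eu-anti-phosphotyrosine TR-FRET read at 665 nm, IC50 by four-parameter fit.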

[4] = In vivo pharmacokinetics in ICR mice; conditions: mouse, plasma, PO, 10 mg/kg intragastric; for AUC(0-t): read-out: AUC(0-t); for Cmax: read-out: Cmax; for MRT last: read-out: MRT(0-t); for Tmax: read-out: Tmax; for half-life: read-out: T½ (converted)
Description: The animals to be tested (ICR mice) were fasted for 12 h before administration and food was provided 4 h after administration, and water was freely drunk before and after the experiment and during the experiment.
After intragastric administration, about 0.1 mL of blood was collected from the orbit at 0 min, 15 min, 30 min, 1 h, 2 h, 4 h, 6 h, 8 h, 10 h, and 24 h. After anticoagulation with EDTA-K2, blood samples were transferred to a centrifuge within 30 min, and centrifuged at 4000 rpm for 10 min at 4° C. to separate the plasma. All the plasma samples were collected and immediately stored at −20° C. for testing.
300 μL of acetonitrile solution containing an internal standard ([…] diazepam) was added to 20 μL of the plasma sample to be tested and a standard curve sample. The mixture was shaken and homogeneously mixed for 5 min, and centrifuged at 12,000 rpm for 10 min. 70 μL of supernatant was taken and diluted with 70 μL of ultrapure water. After being mixed well, 2 μL of the resulting sample was subjected to LC/MS/MS, and a chromatogram was recorded.

[5] = test system: BAF3-EGFR (L858R/T790M/C797S) cells; experiment: Inhibition of proliferation of BAF3-EGFR (L858R/T790M/C797S) cells, CCK-8; assay type: cell-based; conditions: Ba/F3 EGFR, 72 h, read-out: BAF3(EGFR T790M L858R C797S) cell inhibitory activity IC50
Procedure, shortened: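 BaF3 EGFR L858R/T790M/C797S cells seeded at 1.5×10^5 cells/mL in RPMI + 10% FBS, 37 °C, compound added after overnight, duplicates. Viability by CCK-8; % inhibition vs untreated and blank, IC50 by four-parameter fit.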

[6] = test system: PC-9 EGFR-Del19-T790M-C797S cells; experiment: Inhibition of proliferation of PC-9-EGFR (Del19 T790M C797S) cells, CCK-8; assay type: cell-based; conditions: 72 h, read-out: PC-9-EGFR (Del19 T790M C797S) cell inhibitory activity IC50
Description: PC-9 EGFR-Del19-T790M-C797S cells in the logarithmic growth phase and good conditions were taken, washed with PBS, digested with pancreatin, terminated with a complete medium, collected and added to a centrifuge tube, adjusted to a cell density of 2×10^4 cells/mL, and seeded in a 96-well plate (100 μL/well). Meanwhile, compounds were loaded using a nanoliter pipettor resulting in the final concentrations of the compounds of 1000 nM-0.06 nM, and a control was set, replicate wells for each concentration. After 72 h of incubation in the cell incubator, the assay reagent CCK-8 (manufacturer: Dojindo Laboratories, Beijing; 10 μL/well) was added. After 2 h of incubation in the cell incubator, absorbance was measured at 450 nm on a PerkinElmer Envision microplate reader, and the inhibition rate was calculated.
(§1) Inhibition rate (%)=(mean value of negative control group-mean value of experimental group)/(mean value of negative control group−mean value of blank group)×100%.
(§2) A dose-response curve was fitted by four-parameter analysis, with the logarithm of compound concentration serving as abscissa and inhibition rate serving as ordinate, such that IC50 was calculated.

[7] = test system: BAF3-EGFR (del19/T790M/C797S) cells; experiment: Inhibition of proliferation of BAF3-EGFR (Del19/T790M/C797S) cells, CCK-8; assay type: cell-based; conditions: Ba/F3 EGFR-Del19/T790M/C797S, 72 h, read-out: BAF3(EGFR T790M Del19 C797S) cell inhibitory activity IC50
Description: A flask of BAF3-EGFR (del19/T790M/C797S) cells in the logarithmic growth phase and good conditions was taken, and the cells were collected and added to a centrifuge tube. 20 μL of cells were taken and counted, and the required number of cells (mL) was pipetted and centrifuged at 1200 rpm for 3 min. The supernatant was discarded, and an appropriate amount of plating medium (RPMI medium+10% FBS) was added to adjust the cell density to 1.0×10^5 cells/mL. The cells were seeded on a 96-well plate at 100 μL/well using a multi-channel pipette and cultured in a cell incubator at 37° C., 5% CO2 with saturated humidity. After overnight incubation, compounds were loaded using a nanoliter pipettor, 2 duplicate wells were set for each concentration, and cells without compound added were used as negative controls.
as §1, §2

| Structure (SMILES) | Stability in liver microsomes (residual %, T = 60 min) [1] | IC50 [2] | IC50 [3] | IC50 [5] | IC50 [6] | IC50 [7] | also measured |
| --- | --- | --- | --- | --- | --- | --- | --- |
| Cc1cc2cc(n1)-c1cnn(C)c1OCCC[C@@H](C1CC1)CN1/C(=N/C2=O)Nc2ccc(NC3CCN(C)CC3)cc21 [Example 20] | 73.66% | 0.012 nM | 0.02 nM | – | – | – | – |
| Cc1cc2cc(n1)-c1cnn(C)c1OCCC[C@@H](C1CC1)CN1/C(=N/C2=O)Nc2cc(NCCCN3CCCCC3)ccc21 [Example 71] | 82.82% | – | – | – | – | – | AUC(0-inf) [4]: 1680 ng·h/mL; AUC(0-t) [4]: 1620 ng·h/mL; Cmax [4]: 138 ng/mL; MRT last [4]: 7.85 h; Tmax [4]: 6 h; half-life [4]: 4.5 h |
| Cc1cc2cc(n1)-c1cnn(C)c1OCCC[C@@H](C1CC1)CN1/C(=N/C2=O)Nc2cc(N[C@@H](C)CN(C)C)ccc21 [Example 68] | 78.57% | – | – | – | – | – | AUC(0-inf) [4]: 1960 ng·h/mL; AUC(0-t) [4]: 1950 ng·h/mL; Cmax [4]: 148 ng/mL; MRT last [4]: 7.54 h; Tmax [4]: 4 h; half-life [4]: 3.04 h |
| Cc1cc2cc(n1)-c1cnn(C)c1OCCC[C@@H](C1CC1)CN1/C(=N/C2=O)Nc2cc(N[C@H]3CC[C@@H](N(C)C)C3)ccc21 [Example 131] | 95.64% | – | 0.08 nM | < 5 nM | < 50 nM | – | – |
| Cc1cc2cc(n1)-c1cnn(C)c1OCCC[C@@H](C1CC1)CN1/C(=N/C2=O)Nc2ccc(NC(C)CN(C)C)cc21 (stereo partly shown) [Example 63] | – | 0.008 nM | 0.013 nM | < 5 nM | < 50 nM | < 1 nM | – |
| Cc1cc2cc(n1)-c1cnn(C)c1OCCC[C@@H](C1CC1)CN1/C(=N/C2=O)Nc2cc(NCC3(C)COC3)ccc21 [Example 40] | – | 0.014 nM | 0.021 nM | < 5 nM | < 50 nM | < 1 nM | – |
| Cc1cc2cc(n1)-c1cnn(C)c1OCCC[C@@H](C1CC1)CN1/C(=N/C2=O)Nc2ccc(N[C@H]3CC[C@@H](N(C)C)C3)cc21 [Example 132] | 63.76% | – | 0.066 nM | < 5 nM | < 50 nM | – | – |
| Cc1cc2cc(n1)-c1cnn(C)c1OCCC[C@@H](C1CC1)CN1/C(=N/C2=O)Nc2ccc(N[C@@H]3CC[C@H](N(C)C)C3)cc21 [Example 134] | 65.19% | – | 0.069 nM | < 5 nM | – | – | – |
| Cc1cc2cc(n1)-c1cnn(C)c1OCCC[C@@H](C1CC1)CN1/C(=N/C2=O)Nc2cc(N(C)C3COC3)ccc21 [Example 41] | – | 0.0089 nM | 0.016 nM | < 5 nM | < 50 nM | < 1 nM | – |
| [2H]C([2H])([2H])N(C[C@H](C)Nc1ccc2c(c1)N/C1=N/C(=O)c3cc(C)nc(c3)-c3cnn(C)c3OCCC[C@@H](C3CC3)CN12)C([2H])([2H])[2H] [Example 124] | 77.10% | – | 0.12 nM | – | – | – | – |
| Cc1cc2cc(n1)-c1cnn(C)c1OCCC[C@@H](C1CC1)CN1/C(=N/C2=O)Nc2cc(N[C@@H]3CC[C@@H](N(C)C)C3)ccc21 [Example 129] | 92.24% | – | 0.065 nM | – | – | – | – |
| CCN1CCC(Nc2ccc3c(c2)N2C[C@H](C4CC4)CCCOc4c(cnn4C)-c4cc(cc(C)n4)C(=O)/N=C/2N3)CC1 [Example 55] | – | 0.014 nM | 0.02 nM | < 5 nM | < 50 nM | < 1 nM | – |
| Cc1cc2cc(n1)-c1cnn(C)c1OCCC[C@@H](C1CC1)CN1/C(=N/C2=O)Nc2cc(N[C@@H]3CC[C@H](N(C)C)C3)ccc21 [Example 133] | 95.34% | – | 0.097 nM | < 5 nM | – | – | – |
| Cc1cc2cc(n1)-c1cnn(C)c1OCCC[C@@H](C1CC1)CN1/C(=N/C2=O)Nc2ccc(NCCCN3CCOCC3)cc21 [Example 81] | – | 0.011 nM | 0.037 nM | < 5 nM | < 50 nM | < 1 nM | – |
| Cc1cc2cc(n1)-c1cnn(C)c1OCCC[C@@H](C1CC1)CN1/C(=N/C2=O)Nc2ccc(NCCN3CCCC3)cc21 [Example 82] | – | 0.0085 nM | 0.02 nM | < 5 nM | < 50 nM | < 1 nM | – |
| Cc1cc2cc(n1)-c1cnn(C)c1OCCC[C@@H](C1CC1)CN1/C(=N/C2=O)Nc2ccc(N[C@@H]3CC[C@@H](N(C)C)C3)cc21 [Example 130] | 56.81% | – | 0.056 nM | < 5 nM | – | – | – |
| Cc1cc2cc(n1)-c1cnn(C)c1OCCC[C@@H](C1CC1)CN1/C(=N/C2=O)Nc2ccc(N[C@H]3C[C@@H](N(C)C)C3)cc21 [Example 127] | 75.00% | 0.12 nM | – | – | < 50 nM | – | – |
| Cc1cc2cc(n1)-c1cnn(C)c1OCCC[C@@H](C1CC1)CN1/C(=N/C2=O)Nc2cc(NC3CN(C)C3)ccc21 [Example 33] | 83.39% | 0.0098 nM | 0.015 nM | – | – | – | – |
| Cc1cc2cc(n1)-c1cnn(C)c1OCCC[C@@H](C1CC1)CN1/C(=N/C2=O)Nc2cc(N[C@H]3C[C@@H](N(C)C)C3)ccc21 [Example 125] | 93.95% | – | 0.08 nM | – | – | – | – |
| Cc1cc2cc(n1)-c1cnn(C)c1OCCC[C@@H](C1CC1)CN1/C(=N/C2=O)Nc2cc(NCCCN3CCCC3)ccc21 [Example 70] | 81.11% | 0.013 nM | 0.04 nM | < 5 nM | – | – | – |
| Cc1cc2cc(n1)-c1cnn(C)c1OCCC[C@@H](C1CC1)CN1/C(=N/C2=O)Nc2cc(NC(C)C3COC3)ccc21 (stereo partly shown) [Example 37] | – | 0.013 nM | 0.022 nM | < 5 nM | < 50 nM | < 1 nM | – |
